Measured values as given in US20080261862A1, “Materials and Methods for Modulating Signalling by Alpha-V Integring Molecules” (priority 2004, published 2008).
“Also recorded” adds a separate entry of the source.

B1: vitronectin (protein, UniProt P04004 20-478, looked up)
Vitronectin: DQESCKGRCTEGFNVDKKCQCDELCSYYQSCCTDYTAECKPQVTRGDVFTMPEDEYTVYDDGEEKNNATVHEQVGGPSLTSDLQAQSKGNPEQTPVLKPEEEAPAPEVGASKPEGIDSRPETLHPGRPQPPAEEELCSGKPFDAFTDLKNGSLFAFRGQYCYELDEKAVRPGYPKLIRDVWGIEGPIDAAFTRINCQGKTYLFKGSQYWRFEDGVLDPDYPRNISDGFDGIPDNVDAALALPAHSYSGRERVYFFKGKQYWEYQFQHQPSQEECEGSSLSAVFEHFAMMQRDSWEDIFELLFWGRTSAGTRQPQFISRDWHGVPGQVDAAMAGRIYISGMAPRPSLAKKQRFRHRNRKGYRSQRGHSRGRNQNSRRPSRATWLSLFSSEESNLGANNYDDYRMDWLVPATCEPIQSVFFFSGDKYYRVNLRTRRVDTVDPPYPRSIAQYWLGCPAPGHL
notes: extracellular matrix protein, RGD-containing αv ligand

Experiments:
SMS-SB cells [1] = test: Proliferation ([3H]-thymidine incorporation) of low cell density SMS-SB cultures; assay type: cell-based, human; details: 72 hr; for growth / thymidine incorporation of SMS-SB cells: LCD cultures, 2500 cells/well
Method: For stimulation experiments, SMS-SB cells were cultured at 2500 cells/100 μl culture (low cell density, LCD) a seeding density at which the cells are prone to apoptose^15. NALM-6 cells were washed extensively in PFHM prior to culture at 2, 500 cells/100 μl culture. Cultures were propagated, in the presence or absence of cytokines, MAbs or peptides, at 37° C. for 72 hours followed by addition of 0.3 μCi/well tritiated thymidine ([^3H]-TdR) for 18 hours prior to harvest; incorporation was determined by liquid scintillation spectrometry. Apoptosis was determined by staining harvested cells with propidium iodide (PI) and Hoechst 33342 for 1 minute prior to analysis on a Coulter Elite flow cytometer as previously described^15. For stromal cell/SMS-SB co-cultures, 6000 stromal cells were seeded into individual wells of a 96-well tray and allowed to adhere for 24 hr; anti-CD23 MAb or isotype matched control and SMS-SB cells were added to the wells to give a total culture volume of 100 μl. SMS-SB cells were added at 5, 25 or 50 cells per well and cultures were allowed to expand over a 2-4 week period.

SMS-SB cells [2] = test: Flow cytometry binding of biotinylated peptides to SMS-SB cells; assay type: cell-based, human
Source text: FIG. 3C:—Binding of biotinylated peptides to pre-B cell lines was detected by addition of PE-streptavidin and flow cytometry; mean fluorescence index (MFI) data were derived using CellQuest software. The flow cytometric plots for binding of peptides #9 (black line), #11 (grey line) and #57 (shaded area) are illustrated (Panel i), and MFI data for binding of the noted peptides to SMS-SB (Panel ii), Blin-1 (Panel iii) and Nalm-6 (Panel iv) are shown. The unique nine amino acid sequence of each biotinylated tridecapeptide is shown with the RKC motif shared by αvβ5 binding peptides shown in bold (Panel ii).
Binding of peptides to cells was visualised by treating cells exposed to biotinylated peptides with fluorochrome-conjugated streptavidin and scoring binding by flow cytometry; mean fluorescence intensity data were obtained using the CellQuest programme. In culture experiments, peptides were used in the 10 nM to […] concentration range and appropriate solvent vehicle controls (e.g., acetonitrile, DMSO) were always performed.

Molecule | growth / thymidine incorporation of SMS-SB cells (SMS-SB cells [1]) | effect of RGDS on SMS-SB growth / thymidine incorporation induced by peptides #9 and #12 (SMS-SB cells [1]; 10 μg/ml RGDS) | effect of excess RGDS on peptide binding to SMS-SB cells (SMS-SB cells [2]; ten-fold excess / 10 μg/ml RGDS) | binding of biotinylated peptide to SMS-SB cells (SMS-SB cells [2]; flow cytometry, MFI)
fibronectin [Fn] | neither Vn nor Fn sustain the growth of SMS-SB cells |  |  | 
RGDS |  | nor inhibits thymidine incorporation induced by peptides #9 and #12; also recorded: fails to block | neither impedes peptide binding to SMS-SB cells; also recorded: fails to block binding of peptide #9 to SMS-SB cells | 
CKRQFNIWK [9-INV] | reduces substantially, but does not ablate, its ability to elevate thymidine incorporation |  |  | does not reduce greatly binding
B1 | neither Vn nor Fn sustain the growth of SMS-SB cells |  |  | 
